# Assay results reported in patent publication US6827949B2, “Wood preservative” (Takeda Chemical Industries, Ltd., priority 2001, dated 2004).
# Tests used:
# [1] = system: worker ants of Coptotermes formosanus; experiment: Damage (ingestion) inhibition test (filter paper); format: in vivo; parameters: key: 0: No damage; 1: Damage of ½ or less; 2: Damage of ½ to ¾; 3: Damage of ¾ with some remainder; 4: Complete damage; settings: filter paper immersed in 1 w/w % solution in acetone (hispidin in methanol); 100 worker ants; Control 4
# Method: A 1 w/w % solution of each compound shown in Table 7 in acetone (except for hispidin which was prepared as a 1 w/w % solution in methanol) was prepared.
# In this solution, a No.2 filter paper of 1×1 cm in size was immersed, taken out and then air-dried. It was then placed in a 11-K bottle in which 100 worker ants of Coptotermes formosanus had been kept, and the ingestion behavior was observed. Hispidin employed was a reagent produced by Calbiochem.
# Fomitopsis palustris = experiment: Wood-decaying fungal growth inhibition test; format: cell-based; parameters: key: 0: No growth; 1: Fungal growth; settings: filter paper immersed in 5 w/w % acetone solution, placed on Fomitopsis palustris on PDA medium; Control 1
# From the text: A No.2 filter paper of 1×1 cm in size was immersed in the solution, taken out and then air-dried. The filter was then placed on a Fomitopsis palustris which had been cultivated on a PDA medium in a petri dish and observed conditions of fungal growth for 8 weeks.
# [2] = system: spore mixture of Aspergillus niger, Penicillin funculosum, Aureobasidium pullulans and Gliocladium virens; experiment: Woodstaining fungal growth inhibition test; format: cell-based; parameters: key: 0: No fungal growth; 1: Fungal growth; settings: filter paper immersed in 5 w/w % acetone solution, sprayed with spore mixture, 2% agar; Control 1
# From the text: In the solution, a No.2 filter paper of 1×1 cm in size was immersed, taken out and then air-dried.
# Aureobasidium pullulans and […]
SMILES,Damage degree after 1 week [1],Fungal growth after 8 weeks (Fomitopsis palustris),Fungal growth after 3 days [2]
"COC1=CC(=O)OC(CCc2ccc(OC)cc2)C1 (stereo not shown) [5,6,7,8-Tetrahydroyangonin]",0,0,0
"COc1cc(/C=C/c2ccccc2)oc(=O)c1 [5,6-Dehydrokawain]",1,0,0
"COC1=CC(=O)O[C@@H](CCc2ccccc2)C1 [7,8-Dihydrokawain]",0,0,0
"COC1=CC(=O)O[C@@H](CCc2ccc3c(c2)OCO3)C1 [7,8-Dihydromethysticin]",0,0,0
"O=c1cc(O)cc(/C=C/c2ccc(O)c(O)c2)o1 [Hispidin, reference compound]",1,,
COC1=CC(=O)O[C@@H](/C=C/c2ccccc2)C1 [Kawain],1,0,0
COC1=CC(=O)O[C@@H](/C=C/c2ccc3c(c2)OCO3)C1 [Methysticin],0,0,0
COc1ccc(/C=C/c2cc(OC)cc(=O)o2)cc1 [Yangonin],1,0,0
